Source: US20140039008A1, “METHODS FOR THE ADMINISTRATION OF ILOPERIDONE” (VANDA PHARMACEUTICALS, INC., priority 2004, published 2014)
Where “and” joins values, the source holds several entries; their conditions need not be identical. Equal values may be shown once. Marks after values point to notes of the source that are not given here.

Columns and labels:
[1] = in vivo
[2] = in vivo; remark: listed apart in the source
patients [3] = assay: Example 2: QTcF change from baseline in iloperidone-treated patients; assay type: in vivo, human
Excerpt: From the 300 iloperidone-treated patients initially genotyped for the CYP2D6*4 and * 10 variants (VP-VYV-683-3101), 222 remaining DNA samples were used for this extended pharmacogenomic analysis. One patient was excluded from the analysis due to inconsistent results for the CYP2D6 allele *4 generated by Quest Diagnostics Central Laboratory (Collegeville, Pa.) and Cogenics (Morrisville, N.C.). Pharmacokinetic data of the (iloperidone+P88)/P95 ratio was available for 168 of these patients. QT measurement at Day 14 and 28 was available for 169 and 146 patients respectively.
Analyses were performed on observed case data using an ANCOVA model with the baseline value as a covariate for the change from baseline in QTc (Fridericia formula) and using an ANOVA model for iloperidone blood exposure at Day 14 and Day 28. Linkage disequilibrium analysis was performed using Haploview v4.0 (Barrett et al, 2005).

patients [4] = assay: placebo-controlled Phase III studies of iloperidone, QTcF change; assay type: in vivo, human; conditions: for mean change in the QTcF: most recent study
Protocol: Iloperidone is a benzisoxazole-piperidinyl derivative, currently in development for the treatment of CNS disorders. […] At lower doses of iloperidone (4 mg-16 mg) QTcF prolongation was minimal (0.1-5 msec). In the most recent study, a greater prolongation was observed when higher doses of iloperidone (20-24 mg/day) were studied. The mean change in the QTcF at doses 20-24 mg/day was 8.5 msec, and 4.6 msec in the 12-16 mg/day dose range in this study.

patients [5] = assay: Example 1: QTc change from baseline after iloperidone by CYP2D6 genotype or metabolite ratio; assay type: in vivo, human; conditions: for QTc change at Period 2: after CYP2D6 inhibitor
Excerpt: The research leading to the present invention was designed to examine the effect of different doses of iloperidone relative to the effect of ziprasidone and quetiapine on QTc duration under carefully controlled conditions. To further evaluate the possible relationship between exposure to iloperidone and the comparators to QTc duration, reassessment after pharmacological inhibition of the principle metabolic pathways for each drug, under steady-state conditions, was also planned.
The addition of metabolic inhibitors in this study therefore allowed for an evaluation of the effect of increasing blood-concentration of iloperidone and/or its metabolites on QT duration. More specifically, this study allowed for an evaluation of the effect of iloperidone on QTc before and after the addition of the CYP2D6 inhibitor, paroxetine, as well as before and after the addition of the CYP3A4 inhibitor, ketoconazole.
The 128 individuals that participated were a good representation of the total sample of 165 individuals that participated in the trial. 22 of 29 total were from the iloperidone 8 mg bid group, 30 of 34 were from the iloperidone 12 mg bid group, 22 of 31 from the 24 mg qd group, 3 of 5 of the risperidone group, 28 of 33 of the ziprazidone group, and 23 of 33 of the quetiapine group.
In order to understand whether the difference in concentration of P88 at Period 1 Tmax was relevant to the increases in QTc after the addition of the inhibitors, the observed mean of P88 for the CYP2D6G1846A AG group was used to divide all individuals into two classes. The first includes individuals with P88 concentrations at Period 3, after the addition of both inhibitors, of equal to or less than 34 ng/mL and the second class includes individuals with P88 concentration greater than 34 ng/mL. The two classes were then compared in regards to the QTc change from baseline at Period 3. Using an ANOVA statistic for the first class […] (n=55) the QTc mean change from baseline in Period 3 was 22.7 msec and that for P88≦34 (n=12) the mean QTc for the same period was 7.7 msec.
While the results for some groups are not statistically significant, they do indicate a trend supporting the hypothesis that QTc prolongation is correlated to P88/P95 ratio. Similar results were obtained when cutoff ratios of 3.0 and 4.0 were analyzed, providing further support to the hypothesis that the extent of QTc prolongation a patient may experience after treatment can be predicted by measuring P88 and P95 blood levels.
Similar results were observed when considering QTc correlation to the (iloperidone+P88)/P95 ratio. […] While the results for some groups are not statistically significant, they do indicate a trend supporting the hypothesis that QTc prolongation is correlated to (iloperidone+P88)/P95 ratio. Indeed, when cutoff ratios of 3 and higher were analyzed, similar results were obtained providing further support to the hypothesis that the extent of QTc prolongation a patient may experience after treatment can be predicted by measuring iloperidone, P88 and P95 blood levels.

COc1cc(C(C)=O)ccc1OCCCN1CCC(c2noc3cc(F)ccc23)CC1 [iloperidone, 1-[4-[3-[4-(6-fluoro-1,2-benzisoxazol-3-yl)-1-piperidinyl]propoxy]-3-methoxyphenyl]ethanone]
increase in the concentrations [1]: 38-58%
increase of the area under the curve (AUC) [2]: 131%
QTcF change, LS Squares Mean QTcF change from baseline (patients [3]; Day 14, 1 or 2 non-functional CYP2D6 alleles): 16.3 msec and 16.3 (N = 59) msec
QTcF change, LS Squares Mean QTcF change from baseline (patients [3]; Day 14, 2 functional CYP2D6 alleles): 9.7 msec and 9.7 (N = 110) msec
QTcF change, LS Squares Mean QTcF change from baseline (patients [3]; Day 14, (iloperidone+P88)/P95 ratio >1): 16.0 msec and 16.0 (N = 99) msec
QTcF change, LS Squares Mean QTcF change from baseline (patients [3]; Day 14, (iloperidone+P88)/P95 ratio ≦1): 7.9 msec and 7.9 (N = 127) msec
QTcF change, LS Squares Mean QTcF change from baseline (patients [3]; Day 28, 1 or 2 non-functional CYP2D6 alleles): 11.4 msec and 11.4 (N = 56) msec
QTcF change, LS Squares Mean QTcF change from baseline (patients [3]; Day 28, 2 functional CYP2D6 alleles): 4.4 msec and 4.4 (N = 90) msec
QTcF change, LS Squares Mean QTcF change from baseline (patients [3]; Day 28, (iloperidone+P88)/P95 ratio >1): 10.1 msec and 10.1 (N = 79) msec
QTcF change, LS Squares Mean QTcF change from baseline (patients [3]; Day 28, (iloperidone+P88)/P95 ratio ≦1): 4.8 msec and 4.8 (N = 119) msec
mean change in the QTcF (patients [4]; 12-16 mg/day dose range): 4.6 ms
mean change in the QTcF (patients [4]; 20-24 mg/day): 8.5 ms
QTcF prolongation (patients [4]; lower doses 4 mg-16 mg): 0.1 to 5 ms
LSMean QTc change from Baseline 8 mg bid (patients [5]; (ILO + P88)/P95 ratio <3): 7.2 (n = 23)
LSMean QTc change from Baseline 12 mg bid (patients [5]; (ILO + P88)/P95 ratio <3): 8.7 (n = 31)
LSMean QTc change from Baseline 8 + 12 mg bid (patients [5]; (ILO + P88)/P95 ratio <3): 8.3 (n = 54)
LSMean QTc change from Baseline 24 qd (patients [5]; (ILO + P88)/P95 ratio <3): 14.4 (n = 24)
LSMean QTc change from Baseline All Treatment Groups (patients [5]; (ILO + P88)/P95 ratio <3): 10.424 (n = 78)
LSMean QTc change from Baseline 8 mg bid (patients [5]; (ILO + P88)/P95 ratio >3): 21.3 (n = 5)
LSMean QTc change from Baseline 12 mg bid (patients [5]; (ILO + P88)/P95 ratio >3): 15.2 (n = 3)
LSMean QTc change from Baseline 8 + 12 mg bid (patients [5]; (ILO + P88)/P95 ratio >3): 17.3 (n = 8)
LSMean QTc change from Baseline 24 qd (patients [5]; (ILO + P88)/P95 ratio >3): 30.5 (n = 5)
LSMean QTc change from Baseline All Treatment Groups (patients [5]; (ILO + P88)/P95 ratio >3): 20.031 (n = 13)
QTc change at Period 1 (patients [5]; CYP2D6C100T CC, 8 mg bid): 7.8 (17)
QTc change at Period 2 (patients [5]; CYP2D6C100T CC, 8 mg bid): 11.7 (16)
QTc change at Period 1 (patients [5]; CYP2D6C100T CC, 12 mg bid): 11.8 (23)
QTc change at Period 2 (patients [5]; CYP2D6C100T CC, 12 mg bid): 14.5 (21)
QTc change at Period 1 (patients [5]; CYP2D6C100T CC, 24 mg qd): 9.5 (14)
QTc change at Period 2 (patients [5]; CYP2D6C100T CC, 24 mg qd): 16.4 (15)
QTc change at Period 1 (patients [5]; CYP2D6C100T CT, 8 mg bid): 2.9 (2)
QTc change at Period 2 (patients [5]; CYP2D6C100T CT, 8 mg bid): 12.5 (2)
QTc change at Period 1 (patients [5]; CYP2D6C100T CT, 12 mg bid): 5.8 (6)
QTc change at Period 2 (patients [5]; CYP2D6C100T CT, 12 mg bid): 8.7 (6)
QTc change at Period 1 (patients [5]; CYP2D6C100T CT, 24 mg qd): 19.0 (5)
QTc change at Period 2 (patients [5]; CYP2D6C100T CT, 24 mg qd): 20.6 (5)
QTc change at Period 1 (patients [5]; CYP2D6C100T TT, 8 mg bid): −8.4 (1)
QTc change at Period 2 (patients [5]; CYP2D6C100T TT, 8 mg bid): −0.7 (1)
QTc change at Period 1 (patients [5]; CYP2D6C100T TT, 12 mg bid): 17.7 (1)
QTc change at Period 2 (patients [5]; CYP2D6C100T TT, 12 mg bid): 25.0 (1)
QTc change at Period 1 (patients [5]; CYP2D6C100T TT, 24 mg qd): 38.4 (1)
QTc change at Period 2 (patients [5]; CYP2D6C100T TT, 24 mg qd): 28.4 (1)
QTc change at Period 1 (patients [5]; CYP2D6G1846A AA, 12 mg bid): 17.7 (1)^a
QTc change at Period 2 (patients [5]; CYP2D6G1846A AA, 12 mg bid): 25.0 (1)
QTc change at Period 1 (patients [5]; CYP2D6G1846A AA, 24 mg qd): 38.4 (1)
QTc change at Period 2 (patients [5]; CYP2D6G1846A AA, 24 mg qd): 28.4 (1)
QTc change at Period 1 (patients [5]; CYP2D6G1846A AG, 8 mg bid): −0.8 (3)
QTc change at Period 2 (patients [5]; CYP2D6G1846A AG, 8 mg bid): 8.1 (3)
QTc change at Period 1 (patients [5]; CYP2D6G1846A AG, 12 mg bid): 5.8 (6)
QTc change at Period 2 (patients [5]; CYP2D6G1846A AG, 12 mg bid): 8.7 (6)
QTc change at Period 1 (patients [5]; CYP2D6G1846A AG, 24 mg qd): 19.0 (5)
QTc change at Period 2 (patients [5]; CYP2D6G1846A AG, 24 mg qd): 20.6 (5)
QTc change at Period 1 (patients [5]; CYP2D6G1846A GG, 8 mg bid): 7.8 (17)
QTc change at Period 2 (patients [5]; CYP2D6G1846A GG, 8 mg bid): 11.7 (18)
QTc change at Period 1 (patients [5]; CYP2D6G1846A GG, 12 mg bid): 11.8 (23)
QTc change at Period 2 (patients [5]; CYP2D6G1846A GG, 12 mg bid): 14.5 (21)
QTc change at Period 1 (patients [5]; CYP2D6G1846A GG, 24 mg qd): 14.0 (14)
QTc change at Period 2 (patients [5]; CYP2D6G1846A GG, 24 mg qd): 16.4 (15)
LSMean QTc change from Baseline 8 mg bid (patients [5]; P88/P95 ratio <2): 7.2 (n = 23)
LSMean QTc change from Baseline 12 mg bid (patients [5]; P88/P95 ratio <2): 8.7 (n = 31)
LSMean QTc change from Baseline 8 + 12 mg bid (patients [5]; P88/P95 ratio <2): 8.3 (n = 54)
LSMean QTc change from Baseline 24 qd (patients [5]; P88/P95 ratio <2): 13.9 (n = 24)
LSMean QTc change from Baseline All Treatment Groups (patients [5]; P88/P95 ratio <2): 10.244 (n = 78)
LSMean QTc change from Baseline 8 mg bid (patients [5]; P88/P95 ratio >2): 21.3 (n = 5)
LSMean QTc change from Baseline 12 mg bid (patients [5]; P88/P95 ratio >2): 17.4 (n = 3)
LSMean QTc change from Baseline 8 + 12 mg bid (patients [5]; P88/P95 ratio >2): 18.3 (n = 8)
LSMean QTc change from Baseline 24 qd (patients [5]; P88/P95 ratio >2): 29.4 (n = 5)
LSMean QTc change from Baseline All Treatment Groups (patients [5]; P88/P95 ratio >2): 21.111 (n = 13)
QTc mean change from baseline in Period 3 (patients [5]; individuals with P88>34 ng/mL at Period 3, after addition of both inhibitors): 22.7 ms
QTc mean change from baseline in Period 3 (patients [5]; individuals with P88≦34 ng/mL at Period 3, after addition of both inhibitors): 7.7 ms
